What was measured:
human CaMKIIδ = molecular target: T1, human CaMKIIδ (Homo sapiens, UniProt Q13557); experiment: In vitro CaMKII inhibitory activity (binding assay, TR-FRET); conditions: activity ranks
T1 construct: Full-length, glutathione-S-transferase(GST)-tagged, human CaMKIIδ was purchased from Carna Biosciences; purchased Carna Biosciences (CaMKIIδ); Wako Pure Chemical Industries (calmodulin) 02-111
Procedure, shortened: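 TR-FRET displacement of a BODIPY probe (300 nM) from 0.5 nM full-length GST-tagged human CaMKIIδ, with Tb-anti-GST, calmodulin and 1 mM CaCl2 in pH 7.6 HEPES/MgCl2 buffer. Read after 1 hr at room temperature over an eight-point 4-fold series. IC50 by logistic fit, with 3 μM parent compound as the 100% control.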

[1] = test system: phospholamban (Thr17, PLN) phosphorylation, cardiac CaMKII; experiment: In vivo cardiac CaMKII inhibition (oral administration), P-PLN Western blot; conditions: male CD (SD) IGS rat left ventricle, 30 mg/kg p.o., 4 hr after administration, in comparison with vehicle-treated group, read-out: Reduction rate of P-PLN
Protocol: Evaluation of In Vivo Cardiac CaMKII Inhibition (Oral Administration)
To evaluate potency of test compounds to inhibit cardiac CaMKII kinase in vivo, phosphorylation levels of CaMKII-specific sites of phospholamban (Thr17, PLN) were measured in the heart of rats administered orally with test compounds.
Test compounds were suspended in 0.5% [w/v]methylcellulose/water solution and administered (30 mg/kg) to male CD (SD) IGS rat (6-8 weeks old, n=4) by the p.o. route (5 mL/kg). At 4 hours after the administration, rats were sacrificed and the hearts were harvested. After washing the isolated hearts with ice-cold saline, connective tissues were removed on ice, and the isolated left ventricle were frozen into liquid nitrogen gas and stored at −80° C.
(§1) The left ventricle samples were homogenized in RIPA-buffer containing phosphatase inhibitors and protease inhibitors. Samples were analyzed by Western blotting using anti-P-PLN (Thr17, Santa Cruz Biotechnology, sc-17024-R) antibody. The band intensities were quantified using an imaging system and were normalized relative to the vehicle-treated group.

HepG2 cells = experiment: In vitro cytotoxicity (cellular ATP content, CellTiter-Glo); format: cell-based; conditions: 33 μM, 72 hr incubation
Protocol: Evaluation of In Vitro Cytotoxicity
To evaluate in vitro cytotoxicity of test compounds, % ATP reduction was determined in the presence of 33 μM of each test compound after 72 hr incubation.
HepG2 cells were seeded in DMEM (Invitrogen) containing 10% FBS (Corning)+glucose (4.5 g/L) for 24 hr to allow cell adhesion. For compound treatments, compounds were diluted in DMSO and the media, followed by added to the wells (24 hr after the cell seeding) to obtain the desired final concentration (33 μM, n=2). The final DMSO concentration was 1%. After 72 hr, cellular ATP contents were measured using CellTiter-Glo Luminescent Cell Viability Assay (Promega). The % ATP reduction was determined by comparing the ATP contents in the absence and the presence of test compounds.

[2] = test system: phospholamban (Thr17, PLN) phosphorylation, cardiac CaMKII; experiment: In vivo cardiac CaMKII inhibition (intravenous administration), P-PLN Western blot; conditions: male CD (SD) IGS rat left ventricle, 1 mg/kg bolus i.v., 0.25 hr after administration, in comparison with vehicle-treated group
Protocol: Evaluation of In Vivo Cardiac CaMKII Inhibition (Intravenous Administration)
To evaluate potency of test compounds to inhibit cardiac CaMKII kinase in vivo, phosphorylation levels of CaMKII-specific sites of phospholamban (Thr17, PLN) were measured in the heart of rats administered intravenously with test compounds.
Test compounds were dissolved in N,N-dimethylacetamide and 1,3-butanediol (1:1) solution and were injected (1 mg/kg) to male CD (SD) IGS rats (8 weeks old, n=4) by bolus intravenous injection via the lateral tail vein or the femoral vein (0.5-1 mL/kg). At 0.25 hours after the injection, rats were sacrificed and the hearts were harvested. After washing the isolated hearts with ice-cold saline, connective tissues were removed on ice, and the isolated left ventricle were frozen into liquid nitrogen gas and stored at −80° C.
as §1

[3] = Table 1, GST-tagged human CaMKIIδ
[4] = Table 4, GST-tagged human CaMKIIδ

## COCCCOc1nn([C@H]2CC[C@H](N3CCOCC3)CC2)cc1Nc1ncc(-c2ccc(C#N)c(O[C@@H](C)Cn3cnnn3)c2)cn1 [Example 26, 2-(((S)-1-(1H-tetrazol-1-yl)propan-2-yl)oxy)-4-(2-((3-(3-methoxypropoxy)-1-((1r,4r)-4-morpholinocyclohexyl)-1H-pyrazol-4-yl)amino)pyrimidin-5-yl)benzonitrile]
Human CaMKIIδ; [3]
  IC50: < 10 nM
[1]
  inhibition in vivo at 30 mg/kg: > 30%
HepG2 cells
  % ATP reduction: 9%
other
  melting point: 153 °C

## COCCCOc1nn([C@H]2CC[C@H](N3C[C@@H](C)O[C@@H](C)C3)CC2)cc1Nc1ncc(-c2ccc(C#N)c(O[C@@H](C)Cn3cnnn3)c2)cn1 [Example 143, 2-(((S)-1-(1H-tetrazol-1-yl)propan-2-yl)oxy)-4-(2-((1-((1r,4r)-4-((2S,6R)-2,6-dimethylmorpholino)cyclohexyl)-3-(3-methoxypropoxy)-1H-pyrazol-4-yl)amino)pyrimidin-5-yl)benzonitrile]
Human CaMKIIδ; [3]
  IC50: < 10 nM
[1]
  inhibition in vivo at 30 mg/kg: > 30%
[2]
  Reduction rate of P-PLN: >30%
HepG2 cells
  % ATP reduction: 12%
other
  melting point: 113 °C

## C[C@@H]1CN([C@H]2CC[C@H](n3cc(Nc4ncc(-c5ccc(C#N)c(O[C@@H](C)Cn6cnnn6)c5)cn4)c(OCCC4COC4)n3)CC2)C[C@H](C)O1 [Example 477, 2-(((S)-1-(1H-tetrazol-1-yl)propan-2-yl)oxy)-4-(2-((1-((1r,4r)-4-((2S,6R)-2,6-dimethylmorpholino)cyclohexyl)-3-(2-(oxetan-3-yl)ethoxy)-1H-pyrazol-4-yl)amino)pyrimidin-5-yl)benzonitrile]
Human CaMKIIδ; [4]
  IC50: < 10 nM
HepG2 cells
  % ATP reduction: 9%

## C[C@@H]1CN([C@H]2CC[C@H](n3cc(Nc4ncc(-c5ccc(C#N)c(O[C@@H](C)Cn6cnnn6)c5)cn4)c(OCCC(C)(C)O)n3)CC2)C[C@H](C)O1 [Example 485, 2-(((S)-1-(1H-tetrazol-1-yl)propan-2-yl)oxy)-4-(2-((1-((1r,4r)-4-((2S,6R)-2,6-dimethylmorpholino)cyclohexyl)-3-(3-hydroxy-3-methylbutoxy)-1H-pyrazol-4-yl)amino)pyrimidin-5-yl)benzonitrile]
Human CaMKIIδ; [4]
  IC50: < 10 nM
[2]
  Reduction rate of P-PLN: >30%
HepG2 cells
  % ATP reduction: 7%

## COCCOCCCOc1nn([C@H]2CC[C@H](N3C[C@@H](C)O[C@@H](C)C3)CC2)cc1Nc1ncc(-c2ccc(C#N)c(O[C@@H](C)Cn3cnnn3)c2)cn1 [Example 488, 2-(((S)-1-(1H-tetrazol-1-yl)propan-2-yl)oxy)-4-(2-((1-((1r,4r)-4-((2S,6R)-2,6-dimethylmorpholino)cyclohexyl)-3-(3-(2-methoxyethoxy)propoxy)-1H-pyrazol-4-yl)amino)pyrimidin-5-yl)benzonitrile]
Human CaMKIIδ; [4]
  IC50: < 10 nM
[1]
  inhibition in vivo at 30 mg/kg: > 30%
HepG2 cells
  % ATP reduction: 3%

— patent US11130752B2, “Aminopyrimidine compound” (Cardurion Pharmaceuticals, LLC, priority 2018, dated 2021)
